The subject of series [1] is beet armyworm (BAW; Spodoptera exigua: Lepidoptera). Put plainly: 128-well diet tray assay on beet armyworm (BAW 50). The format is in vivo. The following applies: 144 h, 50 ug/cm^2 of test compound on diet, second instar BAW larvae, 25° C., six days, average of eight wells, read-out: BAW 50 (percent mortality). On the procedure: (§1) Bioassays on beet armyworm (BAW; Spodoptera exigua: Lepidoptera) were conducted using either a 96-well microtiter plate-based high throughput (HTS) bioassay or a 128-well diet tray assay. The HTS assay is a based on a modification of Lewer et al. J. Nat. Prod. 2006, 69, 1506. BAW eggs were placed on top of artificial diet (100 microliters (μL)) in each well of 96-well microtiter plate. The diet was pretreated with test compounds (12 micrograms (μg) dissolved in 30 μL of DMSO-acetone-water mixture) layered on top of the diet using a liquid handling system and then allowed to dry for several hours. Infested plates were then covered with a layer of sterile cotton batting and the plate lid, and then held in the dark at 29° C. Mortality was recorded at 6 days (d) post-treatment. Each plate had six replicates. The percent mortality was calculated from the average of the six replicates. In the case of the 128-well diet assay, three to five second instar BAW larvae were placed in each well (3 mL) of the diet tray that had been previously filled with 1 mL of artificial diet to which 50 ug/cm^2 of the test compound (dissolved in 50 μL of 90:10 acetone/water mixture) had been applied (to each of eight wells) and then allowed to dry. Trays were covered with a clear self-adhesive cover, and held at 25° C., 14:10 light:dark for six days. Percent mortality was recorded for the larvae in each well; activity in the eight wells was then averaged. In Table 2 under both the BAW HTS and the BAW 50 headings, an “A” means that the compound was tested and at least 50 percent mortality was observed whereas, “B” means that either (1) the compound was tested and less than 50 percent mortality was observed or (2) the compound was not tested.

The test system is the same in series [2]. Put plainly: 96-well microtiter plate-based high throughput (HTS) bioassay on beet armyworm (BAW HTS). The format is in vivo. The following applies: 96-well plate; 12 μg test compound on 100 μL diet; BAW eggs; 29° C.; 6 days post-treatment; average of six replicates. On the procedure:
as §1

These results are taken from US8383786B2, “Pesticidal compositions” (Dow AgroSciences, LLC., priority 2009, dated 2013).

For orientation: mortality means the share of the test organisms that died.

SMILES strings stand for the structures.

As for `CO[C@@H]1[C@@H](OC)[C@H](C)O[C@@H](OC2Cc3ccc(-c4ccnc(-c5ccc(Cl)cc5)n4)cc3C2)[C@@H]1OC` (stereo partly drawn) [Compound 1C, 2-(4-Chlorophenyl)-4-[2-((2R,3R,4R,5S,6S)-3,4,5-trimethoxy-6-methyl-tetrahydropyran-2-yloxy)-indan-5-yl]-pyrimidine], the mortality at 50 µg/cm2 in series [1] is greater than 50%. Moreover, the “BAW HTS (percent mortality)” value in series [2] is “B (either (1) the compound was tested and less than 50 percent mortality was observed or (2) the compound was not tested)”.

With `CO[C@@H]1[C@@H](OC)[C@H](C)O[C@@H](OC2Cc3ccc(-c4ccnc(-c5ccc(Cl)cc5Cl)n4)cc3C2)[C@@H]1OC` (stereo partly drawn) [Compound 2C, 2-(2,4-Dichlorophenyl)-4-[2-((2R,3R,4R,5S,6S)-3,4,5-trimethoxy-6-methyl-tetrahydropyran-2-yloxy)-indan-5-yl]-pyrimidine], the mortality at 50 µg/cm2 in series [1] was less than 50%. For the same molecule, the “BAW HTS (percent mortality)” value in series [2] was “A (the compound was tested and at least 50 percent mortality was observed)”.

In the case of `CO[C@@H]1[C@@H](OC)[C@H](C)O[C@@H](OC2Cc3ccc(-c4ccnc(-c5cccc(C(F)(F)F)c5)n4)cc3C2)[C@@H]1OC` (stereo partly drawn) [Compound 3C, 2-(3-Trifluoromethylphenyl)-4-[2-((2R,3R,4R,5S,6S)-3,4,5-trimethoxy-6-methyl-tetrahydropyran-2-yloxy)-indan-5-yl]-pyrimidine], the mortality at 50 µg/cm2 in series [1] is greater than 50%. Further, the “BAW HTS (percent mortality)” value in series [2] was “B (either (1) the compound was tested and less than 50 percent mortality was observed or (2) the compound was not tested)”.

Turning to `CO[C@@H]1[C@@H](OC)[C@H](C)O[C@@H](OC2Cc3ccc(-c4ccnc(-c5ccc(C(F)(F)F)cc5)n4)cc3C2)[C@@H]1OC` (stereo partly drawn) [Compound 4C, 2-(4-Trifluoromethylphenyl)-4-[2-((2R,3R,4R,5S,6S)-3,4,5-trimethoxy-6-methyl-tetrahydropyran-2-yloxy)-indan-5-yl]-pyrimidine], the mortality at 50 µg/cm2 in series [1] is greater than 50%. Further, the “BAW HTS (percent mortality)” value in series [2] was “B (either (1) the compound was tested and less than 50 percent mortality was observed or (2) the compound was not tested)”.

For `COc1ccc(-c2nccc(-c3ccc4c(c3)CC(O[C@@H]3O[C@@H](C)[C@H](OC)[C@@H](OC)[C@H]3OC)C4)n2)cc1` (stereo partly drawn) [Compound 5C, 2-(4-methoxyphenyl)-4-[2-((2R,3R,4R,5S,6S)-3,4,5-trimethoxy-6-methyl-tetrahydropyran-2-yloxy)-indan-5-yl]-pyrimidine], the mortality at 50 µg/cm2 in series [1] is greater than 50%. The “BAW HTS (percent mortality)” value in series [2] is “A (the compound was tested and at least 50 percent mortality was observed)”.

For the molecule `CO[C@@H]1[C@@H](OC)[C@H](C)O[C@@H](OC2Cc3ccc(-c4ccnc(-c5cccnc5)n4)cc3C2)[C@@H]1OC` (stereo partly drawn) [Compound 6C, 2-Pyridin-3-yl-4-[2-((2R,3R,4R,5S,6S)-3,4,5-trimethoxy-6-methyl-tetrahydropyran-2-yloxy)-indan-5-yl]-pyrimidine], the mortality at 50 µg/cm2 in series [1] was less than 50%. Further, the “BAW HTS (percent mortality)” value in series [2] is “B (either (1) the compound was tested and less than 50 percent mortality was observed or (2) the compound was not tested)”.

As for `CO[C@@H]1[C@@H](OC)[C@H](C)O[C@@H](OC2Cc3ccc(-c4ccnc(-c5ccccc5)n4)cc3C2)[C@@H]1OC` (stereo partly drawn) [Compound 7C, 2-Phenyl-4-[2-((2R,3R,4R,5S,6S)-3,4,5-trimethoxy-6-methyl-tetrahydropyran-2-yloxy)-indan-5-yl]-pyrimidine], in series [1], the mortality at 50 µg/cm2 was less than 50%. For the same molecule, the “BAW HTS (percent mortality)” value in series [2] is “B (either (1) the compound was tested and less than 50 percent mortality was observed or (2) the compound was not tested)”.

With `CO[C@@H]1[C@@H](OC)[C@H](C)O[C@@H](OC2Cc3ccc(-c4ccn(-c5ccc(C(F)(F)F)cn5)n4)cc3C2)[C@@H]1OC` (stereo partly drawn) [Compound 8C, 5-trifluoromethyl-2-{3-[2-((2R,3R,4R,5S,6S)-3,4,5-trimethoxy-6-methyl-tetrahydropyran-2-yloxy)-indan-5-yl]-pyrazol-1-yl}-pyridine], the mortality at 50 µg/cm2 in series [1] is greater than 50%. For the same molecule, the “BAW HTS (percent mortality)” value in series [2] was “A (the compound was tested and at least 50 percent mortality was observed)”.

In the case of `CO[C@@H]1[C@@H](OC)[C@H](C)O[C@@H](OC2Cc3ccc(-c4ccn(-c5nnc(C(F)(F)F)s5)n4)cc3C2)[C@@H]1OC` (stereo partly drawn) [Compound 9C, 2-trifluoromethyl-5-{3-[2-((2R,3R,4R,5S,6S)-3,4,5-trimethoxy-6-methyl-tetrahydropyran-2-yloxy)-indan-5-yl]-pyrazol-1-yl}-[1,3,4]thiadiazole], the mortality at 50 µg/cm2 in series [1] is greater than 50%. The “BAW HTS (percent mortality)” value in series [2] is “A (the compound was tested and at least 50 percent mortality was observed)”.

In the case of `CO[C@@H]1[C@@H](OC)[C@H](C)O[C@@H](OC2Cc3ccc(-c4ccn(-c5ccc(OC(F)(F)C(F)(F)F)cc5)n4)cc3C2)[C@@H]1OC` (some centres unmarked) [Compound 10C], in series [1], the mortality at 50 µg/cm2 is greater than 50%. The “BAW HTS (percent mortality)” value in series [2] was “A (the compound was tested and at least 50 percent mortality was observed)”.
